Data set [1] concerns the target T1, aromatase (Homo sapiens, UniProt P11511).
T1 construct: endogenous in cells; host or cells: KGN human ovarian granulosa-like tumor cell line (RIKEN RCB 1154)
T1 sequence (P11511 1-503): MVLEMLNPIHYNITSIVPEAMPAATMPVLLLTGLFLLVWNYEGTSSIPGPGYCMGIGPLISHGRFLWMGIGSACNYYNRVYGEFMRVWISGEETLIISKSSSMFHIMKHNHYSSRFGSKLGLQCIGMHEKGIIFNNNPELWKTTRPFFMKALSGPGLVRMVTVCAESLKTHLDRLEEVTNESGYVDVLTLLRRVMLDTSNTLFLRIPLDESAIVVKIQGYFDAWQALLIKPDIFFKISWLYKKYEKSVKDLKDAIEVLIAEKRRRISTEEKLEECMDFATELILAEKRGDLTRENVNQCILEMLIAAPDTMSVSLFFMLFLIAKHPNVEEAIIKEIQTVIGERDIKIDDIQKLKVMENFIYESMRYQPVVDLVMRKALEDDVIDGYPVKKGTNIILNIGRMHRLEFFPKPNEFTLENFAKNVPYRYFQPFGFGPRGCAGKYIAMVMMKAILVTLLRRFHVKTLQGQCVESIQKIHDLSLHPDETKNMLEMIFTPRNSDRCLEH
Nature of the data set: Aromatase activity in KGN cells by [3H]H2O release assay. The data set is classed as cell-based. Particulars: for effect on aromatase activity in KGN cells: method of Example 3, FIGS. 5A–5B. On the procedure: Assaying for inhibition or activation of aromatase activity may be carried out by measuring the amount of [^3H]H2O released upon conversion of [1β-^3H]androstenedione to estrone using a modification of the method of Ackerman et al, J. Clin. Endocrinol. Metab., 53:412–417 (1981), or as described in Example 3 below. Briefly, the cells are plated on a petri dish (Falcon 3001) in culture medium with 10% (v/v) fetal calf serum (FCS). At is confluence, the culture medium is replaced with DMEM/Ham's F-12 containing 5.0–10% (v/v) dextran-coated, charcoal-treated FCS (DCS) (Hyclone, Logan Utah), and incubated for another 12 h in the presence or absence of 10^−5–10^−2 M db-cAMP (Wako Pure Chemical Industries Ltd.) and the test compound. After treatment, the cells are further incubated with 12.5 nM [1β-^3H]androstenedione (NEN Life Science Products, Boston, Mass.; SA, 27.5 Ci/mmol) for 6–12 h. After incubation, the medium (2.0 ml) is transferred to tubes containing 1.0 ml ice-cold 30% (w/v) trichloroacetic acid (TCA), and then centrifuged to remove precipitated protein. The cells are harvested using 0.25% (w/v) trypsin-1.0 mM EDTA to determine the protein concentration. The protocol for the extraction of the medium to measure the amount of [^3H]H2O is performed as described by Tanaka et al, Calcif. Tissue Int., 52:107–109 (1993). Finally, the amount of radioactivity in the [^3H]H2O is corrected by subtracting the blank values from each sample. The cell protein content is determined using a micro bicinichoninic acid kit (Pierce Chemical Co., Rockford, Ill.) after the cells are dissolved in 1.0 N NaOH. The aromatase activity is expressed as picomoles per mg cell protein. As a control, the aromatase activities of human granulosa cells (obtained from in vitro fertilization programs), human fibroblast, and HOS cell (human osteoblast-like cell line) (Tanaka et al, supra) can be measured in the same manner.
More specifically, aromatase activity was determined by measuring [^3H] H2O release upon conversion of [1β-^3H]androstenedione (A) to estrone (E1), as described by Mu et al, Biochem. Biophys. Res. Commun., 271(3):710–713 (2000). [1β-^3H]androstenedione was purchased from Amersham Pharmacia Biotech (Boston, Mass.).
The medium (2.0 ml) was extracted with chloroform, and was then centrifuged. The aqueous supernatant was mixed with 5.0% (w/v) charcoal/0.5% (w/v) dextran, and incubated for 30 min. Thereafter, the mixture was centrifuged and the supernatant was added to 5.0 ml of scintillation fluid and assayed for radioactivity. The amount of radioactivity in [^3H]H2O thus measured was standardized based on the protein concentration, which was determined using a micro BCA kit (Pierece Chemical Co., Rockford, Ill.), and expressed as pmol/mg protein/6 h.

For data set [2], the system named is marine neogastropods. The note with it: cited from earlier work.
The subject of data set [3] is P450arom promoter II. Put plainly: Luciferase reporter assay of P450arom promoter II in transfected KGN cells. The data set is classed as cell-based, human. The note with it: for luciferase activity of P450arom promoter II: 20 ng/ml, 48 h, basic state or stimulated by db-cAMP; for Ad4BP/SF-1-dependent increase of the luciferase activity: co-transfected with Ad4BP expression vector. The procedure: Thus, to determine whether or not the decreased expression of P450arom mRNA was regulated through promoter II, which is the major promoter in ovarian granulosa cells (Nishi et al, Endocrinol., 142:437–445 (2001); Means et al, Mol. Endocrinol., 5:2005–2013 (1991); and Carlone et al, Mol. Endocrinol., 11:292–304 (1997)), luciferase activity was determined using a 1 kb P450arom promoter II expression construct in the luciferase reporter vector, pGL3 (Mu et al, Mol. Cell. Endocrinol., 181:239–248 (2001)). pGL3 was obtained from Promega (Madison, Wis.). Transfection was performed using SuperFect reagents according to the manufacturer's instructions (Qiagen (Hilden, Germany)). More specifically, 1×10^5 cells were seeded in a 6-well plate 12 h prior to transfection, and transfected with 2.0 μg of DNA. Five nanograms of Renilla luciferase control reporter vector, pRL-CMV, obtained from Promega (Madison, Wis.), as an internal standard, were added per well to assess the transfection efficiency. […] The promoter activity determined is shown as a fold-increase in the luciferase activity normalized for Renilla luciferase activity (termed relative luciferase activity).
For orientation: Reporter assays use an easily measured gene product as a stand-in for the process of interest.

The subject of data set [4] is KGN cells. Nature of the data set: Effect on KGN cell growth (cell counting, trypan blue exclusion). It is filed as cell-based, human. The note with it: for toxicity to KGN cells: more than 1000 ng/ml, within 24 h. The procedure:
Further, both compounds were dissolved in ethanol, and the final concentration of ethanol in the cell growth medium was 0.1% (w/v).
More specifically, the cells were plated onto a 24-well plate at 1×10^4 cells/well in DMEM/F-12 supplemented with 10% (v/v) FCS. […] Cell viability was assessed by the trypan blue exclusion method.

Data set [5] has as its system P450arom mRNA. The note with it: 20 ng/ml, 48 h. On the procedure:
RNA extraction and RT-PCR analysis for P450arom mRNA were performed as described by Ikuyama et al, Clin. Endrocrinol., 48(5):647–654 (1998). Taq DNA polymerase was obtained from Promega (Madison, Wis.) All of the primers for the PCR were synthesized by Amersham Pharmacia Biotech (Osaka, Japan). The PCR products were electrophoresed on 2.0% (w/v) agarose gel containing […] ethidium bromide.
The relative expression levels of P450arom vis-à-vis β-actin were determined by the measuring of the intensity of the ethidium bromide.

Data set [6] deals with Ad4BP. Put plainly: Expression level of Ad4BP in KGN cells by RT-PCR. The data set is classed as cell-based, human.
For data set [7], the system named is KGN cells. Particulars: 200 ng/ml.
Experimental: More specifically, early and late apoptotic changes in the cells were determined using an Annexin V-EGFP/PI Apoptosis Detection Kit, as described by Mu et al, Endocrinol., 142:3590–3597 (2001). […] After the treatment, the cells were washed once with phosphate-buffered saline (PBS), and then incubated with 200 ml of 1× binding buffer comprising 1.0 ml annexin V-EGFP and 1.0 ml propidium iodide (PI) at room temperature for 5 min in the dark. The cells were then scanned using a confocal laser scanning microscopy (Leica TCS-SP system, Leica Microsystems, Heidelberg, Germany) using a dual filter set for FITC & TRITC. The cell membrane was imaged for green fluorescence (stained by annexin V-EGFP) by excitation with the 488 nm line from an argon laser, and the emission was viewed through a 460 to 505 nm band pass filter. The cell nucleus was imaged for red fluorescence (stained by PI) by excitation with the 560 nm line from an argon laser, and the emission was viewed through a 520 to 580 nm band pass filter.
In data set [8] the test system is E2 production in KGN cells. Put plainly: Estradiol (E2) production in cultured KGN cells (RIA). It is filed as cell-based, human. Particulars: 20 ng/ml, 7 days. On the procedure: The media was collected and the E2 content in the media was determined by specific RIA (SRL, Inc. Tokyo, Japan).
The test system of data set [9] is Thais clavigera. Particulars: rock shell; cited from earlier work.
Where [10] appears, read: same culture system (KGN cells).

Regarding `CCCCNC(=O)n1c(NC(=O)OC)nc2ccccc21` [Benomyl], the “effect on aromatase activity in KGN cells” value (“effect on aromatase activity” for short) in [1] is given as “activate aromatase activity”.

Turning to `c1ccc2c(c1)c1cccc3ccc4cccc2c4c31` [Benzopyrene], the “effect on aromatase activity” value in data set [1] is given as “activate aromatase activity”.

In the case of `ClC1=C(Cl)C2(Cl)C3C(Cl)C=CC3C1(Cl)C2(Cl)Cl` (stereo not shown) [Heptachlor], the “effect on aromatase activity” value in [1] was “activate aromatase activity”.

For `CC1=CC(=O)C=C2CC[C@@H]3[C@H](CC[C@]4(C)C(=O)CC[C@@H]34)[C@@]12C` [SH489], the imposex induction result in [2] (compared with TBT-exposure) is recorded as “same imposex-inducing effect”.

With `N#Cc1ccc(N(Cc2ccc(Br)cc2)n2cnnc2)cc1` [YM511], in data set [1] (setting [10]), the “extent of suppression of aromatase activity” value was “complete suppression” and the “time for suppression of aromatase activity” value is on record as no more than 5 min.

On to `CC(=O)O[C@]1(C(C)=O)CC[C@H]2[C@@H]3C=C(Cl)C4=CC(=O)[C@@H]5C[C@@H]5[C@]4(C)[C@H]3CC[C@@]21C` [cyproterone acetate], for which the “effect on TBT-induced imposex” value in data set [2] (in vivo) was “completely suppressed”.

Take `CCCC(=O)Nc1ncnc2c1ncn2[C@@H]1O[C@@H]2COP(=O)(O)O[C@H]2[C@H]1OC(=O)CCC` [db-cAMP, dibutyryl cyclic AMP]: the “increase in aromatase activity over baseline” value in data set [1] (10^−4 M db-cAMP) was 1.7 fold. In addition, in [3] (10^−4 M db-cAMP), the “activation of the P450arom promoter II” value came out at 1.7 fold.

As for tributyltin [TBT], the “toxicity to KGN cells” value in [4] is recorded as “all of the cells died”. Besides, the “P450arom mRNA levels” value in data set [5] is on record as “decrease”. In [3], the “luciferase activity of P450arom promoter II” value is recorded as “decreased” and the “Ad4BP/SF-1-dependent increase of the luciferase activity” value is listed as “significantly suppressed”. For the same molecule, the “expression level of Ad4BP” value in [6] is on record as “unchanged”. Further, in [7] (48 h), the “apoptotic changes (annexin V positive/PI negative)” value was “early apoptotic cells”. Besides, the “apoptotic changes (annexin V positive/PI positive)” value in [7] (72 h) is “late apoptotic cells”.

For the molecule triphenyltin [TPT], the “effect on KGN cell proliferation” value in data set [4] (less than 50 ng/ml (2 or 20 ng/ml), 7 days) is reported as “little effect”. Further, the “toxicity to KGN cells” value in [4] is listed as “all of the cells died”. Moreover, in data set [1] (20 ng/ml, 72 h, basal (no db-cAMP)), the “aromatase activity, % of the baseline” value is “about 30%”. In addition, the “effect on db-cAMP-induced increase in aromatase activity” value in data set [1] (20 ng/ml, with 10^−4 M db-cAMP) was “suppressed”. In [8], the “E2 concentration in the medium” value was “significant decrease”. In data set [3], the “luciferase activity of P450arom promoter II” value was “decreased” and the “Ad4BP/SF-1-dependent increase of the luciferase activity” value was “significantly suppressed”. Further, the “expression level of Ad4BP” value in data set [6] was “unchanged”. Besides, in data set [9], the “effect on the development of imposex” value is listed as “strong effect”.

Source of the values: patent publication US7018806B2, “Method for identifying endocrine disruptors and kit for carrying out the same” (priority 2001, dated 2006).
